Assays:
Experiment in all cases: relative viability (nuclei count vs DMSO), 5 days (fraction); higher = more cells survive
NCI-H1395 = system: NCI-H1395
How it was run: (§1)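 Relative viability divides the nuclei count in treated wells by that in vehicle wells. Lung cancer cell lines were seeded in 1536-well plates, dosed by pin tool the next day, and fixed and stained after 5 days in one step with final 0.05% Triton X-100, 1% formaldehyde and 1 ug/ml Hoechst. Dosing was a single drug or a fixed anchor-drug dose plus five library-drug doses (not always all listed) in √10 steps, and values are medians of duplicate plates imaged at 4×.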

HCC-827 = system: HCC-827
How it was run: as §1

SK-MES-1 = system: SK-MES-1
How it was run: as §1

NCI-H1355 = system: NCI-H1355
How it was run: as §1

H3255 = system: H3255
How it was run: as §1

NCI-H2087 = system: NCI-H2087
How it was run: as §1

UMC-11 = system: UMC-11
How it was run: as §1

NCI-H1993 = system: NCI-H1993
How it was run: as §1

NCI-H520 = system: NCI-H520
How it was run: as §1

NCI-H2405 = system: NCI-H2405
How it was run: as §1

EMC-BAC-2 = system: EMC-BAC-2
How it was run: as §1

NCI-H2085 = system: NCI-H2085
How it was run: as §1

ChaGo-K-1 = system: ChaGo-K-1
How it was run: as §1

EPLC-272H = system: EPLC-272H
How it was run: as §1

NCI-H23 = system: NCI-H23
How it was run: as §1

NCI-H322M = system: NCI-H322M
How it was run: as §1

LCLC-97TM1 = system: LCLC-97TM1
How it was run: as §1

NCI-H1944 = system: NCI-H1944
How it was run: as §1

NCI-H1651 = system: NCI-H1651
How it was run: as §1

NCI-H1793 = system: NCI-H1793
How it was run: as §1

HCC-44 = system: HCC-44
How it was run: as §1

`CC(C)Oc1cc(Nc2nc(N[C@@H](C)c3ccc(F)cn3)ncc2Cl)n[nH]1` [AZ23] + CC1(C)CCC(c2ccc(Cl)cc2)=C(CN2CCN(c3ccc(C(=O)NS(=O)(=O)c4ccc(N[C@H](CCN5CCOCC5)CSc5ccccc5)c(S(=O)(=O)C(F)(F)F)c4)cc3)CC2)C1 [Navitoclax] (partner 0.5 µM) showed a relative viability (NCI-H1395; first compound 0.03162 µM) of 1.12, a relative viability (NCI-H1395; first compound 0.3162 µM) of 1.21 and a relative viability (HCC-827; first compound 0.01 µM) of 1. For the same compound, the relative viability (HCC-827; first compound 0.03162 µM) was 1.04, the relative viability (HCC-827; first compound 0.3162 µM) was 0.991 and the relative viability (SK-MES-1; first compound 0.01 µM) was 1.4. For the same compound, the relative viability (SK-MES-1; first compound 0.03162 µM) was 1.42, the relative viability (SK-MES-1; first compound 0.3162 µM) was 1.33 and the relative viability (NCI-H1355; first compound 0.01 µM) was 0.999. The relative viability (NCI-H1355; first compound 0.03162 µM) was 0.896, the relative viability (NCI-H1355; first compound 0.3162 µM) was 0.833 and the relative viability (H3255; first compound 0.01 µM) was 0.514. It also gave a relative viability (H3255; first compound 0.03162 µM) of 0.677, a relative viability (H3255; first compound 0.3162 µM) of 0.556 and a relative viability (NCI-H2087; first compound 0.01 µM) of 1.14. The relative viability (NCI-H2087; first compound 0.03162 µM) was 1.12, the relative viability (NCI-H2087; first compound 0.3162 µM) was 0.914 and the relative viability (UMC-11; first compound 0.01 µM) was 0.271. It also gave a relative viability (UMC-11; first compound 0.03162 µM) of 0.334, a relative viability (UMC-11; first compound 0.3162 µM) of 0.304 and a relative viability (NCI-H1993; first compound 0.01 µM) of 0.688. It also gave a relative viability (NCI-H1993; first compound 0.3162 µM) of 0.916, a relative viability (NCI-H520; first compound 0.01 µM) of 0.972 and a relative viability (NCI-H520; first compound 0.03162 µM) of 1.31. For the same compound, the relative viability (NCI-H520; first compound 0.3162 µM) was 1.08, the relative viability (NCI-H2405; first compound 0.01 µM) was 0.8 and the relative viability (NCI-H2405; first compound 0.03162 µM) was 0.915. It also gave a relative viability (NCI-H2405; first compound 0.3162 µM) of 0.781, a relative viability (EMC-BAC-2; first compound 0.01 µM) of 1.59 and a relative viability (EMC-BAC-2; first compound 0.03162 µM) of 1.25. The relative viability (EMC-BAC-2; first compound 0.3162 µM) was 1.19, the relative viability (NCI-H2085; first compound 0.01 µM) was 1.31 and the relative viability (NCI-H2085; first compound 0.03162 µM) was 1.27. For the same compound, the relative viability (NCI-H2085; first compound 0.3162 µM) was 1.11, the relative viability (ChaGo-K-1; first compound 0.01 µM) was 0.782 and the relative viability (ChaGo-K-1; first compound 0.03162 µM) was 1.23. The relative viability (ChaGo-K-1; first compound 0.3162 µM) was 0.949, the relative viability (EPLC-272H; first compound 0.01 µM) was 1.3 and the relative viability (EPLC-272H; first compound 0.03162 µM) was 1.16. For the same compound, the relative viability (NCI-H23; first compound 0.03162 µM) was 0.981, the relative viability (NCI-H23; first compound 0.3162 µM) was 0.69 and the relative viability (NCI-H322M; first compound 0.01 µM) was 1.24. For the same compound, the relative viability (NCI-H322M; first compound 0.03162 µM) was 1.09, the relative viability (NCI-H322M; first compound 0.3162 µM) was 1.29 and the relative viability (LCLC-97TM1; first compound 0.01 µM) was 0.381. The relative viability (LCLC-97TM1; first compound 0.03162 µM) was 0.364, the relative viability (LCLC-97TM1; first compound 0.3162 µM) was 0.603 and the relative viability (NCI-H1944; first compound 0.01 µM) was 0.985. The relative viability (NCI-H1944; first compound 0.03162 µM) was 1.07, the relative viability (NCI-H1944; first compound 0.3162 µM) was 1.01 and the relative viability (NCI-H1651; first compound 0.01 µM) was 0.887. For the same compound, the relative viability (NCI-H1651; first compound 0.03162 µM) was 1.11, the relative viability (NCI-H1651; first compound 0.3162 µM) was 1.11 and the relative viability (NCI-H1793; first compound 0.01 µM) was 0.425. For the same compound, the relative viability (NCI-H1793; first compound 0.03162 µM) was 0.302, the relative viability (NCI-H1793; first compound 0.3162 µM) was 0.341 and the relative viability (HCC-44; first compound 0.01 µM) was 1.31. For the same compound, the relative viability (HCC-44; first compound 0.03162 µM) was 1 and the relative viability (HCC-44; first compound 0.3162 µM) was 0.927.

Reference: the supplement of paper PMC10307832
